Test results published in US7943551B2, “3-cyclopropyl-4-(3-thiobenzoyl) pyrazoles and their use as herbicides” (Bayer Cropscience AG, priority 2007, dated 2011).

How the values were obtained:
Format in all cases: in vivo
Stellaria media = assay: Pre-emergence herbicidal action; conditions: 80 g of a.i./ha
Text: (§1) Seeds or rhizome pieces of mono- and dicotyledonous harmful plants are placed in sandy loam in pots of a diameter of 9 to 13 cm and covered with soil. The herbicides, formulated as emulsifiable concentrates or dusts, are applied to the surface of the covering soil in the form of aqueous dispersions or suspensions or emulsions at an application rate of 300 to 800 l of water/ha (converted), […] For further cultivation of the plants, the pots are then kept in a greenhouse under optimum conditions. The visual scoring of the damage to the harmful plants is carried out 3-4 weeks after the treatment. Here, the compounds of Nos. 1-3, 1-15, 1-44 and 1-1407 show an activity of at least 90% against Echinochloa crus galli. The compounds of Nos. 1-15, 1-45, 1-1407 and 1-1419 show an activity of at least 90% against Abutilon theophrasti. The compounds of Nos. 1-3, 1-45, 1-1406 and 1-1418 show an activity of at least 90% against Amaranthus retroflexus. The compounds of Nos. 1-44, 1-1406, 1-1407 and 1-1419 show an activity of at least 90% against Stellaria media.
(§2) The comparative tests of Tables 1 to 24 below show the superiority of the compounds according to the invention over the compounds known from the prior art.
(§3) • ABUTH Abutilon theophrasti ALOMY Alopecurus myosuroides • AMARE Amaranthus retroflexus AVEFA Avena fatua • CHEAL Chenopodium album ECHCG Echinochloa crus galli • GALAP Galium aparine LOLMU Lolium multiflorum • MATIN Matricaria inodora PHBPU Pharbitis purpureum • POLCO Fallopia convolvulus STEME Stellaria media • VERPE Veronica persica VIOTR Viola tricolor • XANST Xanthium strumarium Crop Plants • GLXMA Glycine max (soybeans) TRZAS Triticum aestivum (wheat) • ZEAMX Zea mays (corn)

Veronica persica [1] = assay: Pre-emergence herbicidal action; conditions: 80 g of a.i./ha
Text: as §1, §2, §3

Amaranthus retroflexus = assay: Pre-emergence herbicidal action
Text: as §1, §2, §3

Matricaria inodora = assay: Pre-emergence herbicidal action; conditions: Tripleurospermum inodorum, read-out: Herbicidal activity in % against MATIN; for pest or weed control at 80 g/ha: 80 g of a.i./ha
Text: (§4) Seeds or rhizome pieces of mono- and dicotyledonous harmful plants are placed in sandy loam in pots of a diameter of 9 to 13 cm and covered with soil. The herbicides, formulated as emulsifiable concentrates or dusts, are applied to the surface of the covering soil in the form of aqueous dispersions or suspensions or emulsions at an application rate of 300 to 800 l of water/ha (converted), at a dosage of 320 grams per hectare. For further cultivation of the plants, the pots are then kept in a greenhouse under optimum conditions. The visual scoring of the damage to the harmful plants is carried out 3-4 weeks after the treatment. Here, the compounds of Nos. 1-3, 1-15, 1-44 and 1-1407 show an activity of at least 90% against Echinochloa crus galli. The compounds of Nos. 1-15, 1-45, 1-1407 and 1-1419 show an activity of at least 90% against Abutilon theophrasti. The compounds of Nos. 1-3, 1-45, 1-1406 and 1-1418 show an activity of at least 90% against Amaranthus retroflexus. The compounds of Nos. 1-44, 1-1406, 1-1407 and 1-1419 show an activity of at least 90% against Stellaria media.
as §2, §3

Galium aparine [2] = assay: Post-emergence herbicidal action; conditions: 20 g of a.i./ha
Experimental: (§5) Seeds of mono- and dicotyledonous harmful plants are placed in sandy loam in cardboard pots, covered with soil and grown in the greenhouse under good growth conditions. Two to three weeks after sowing, the test plants are treated at the three-leaf stage. […] The visual scoring of the damage to the harmful plants is carried out 3-4 weeks after the treatment. Here, the compounds of Nos. 1-39, 1-40, 1-1382 and 1-2091 show an activity of at least 90% against Echinochloa crus galli. The compounds of Nos. 1-3, 1-44 and 1-2091 shown an activity of at least 90% against Abutilon theophrasti. The compounds of Nos. 1-39, 1-40 and 1-1382 show an activity of at least 90% against Veronica persica. The compounds of Nos. 1-3, 1-38, 1-39, 1-1406 and 1-1407 show an activity of at least 90% against Stellaria media.
as §2, §3

[3] = system: Triticum aestivum (wheat); assay: Post-emergence damage of crop plants; conditions: crop plant wheat
Experimental: as §5, §2, §3

Zea mays (corn) = assay: Post-emergence damage of crop plants; conditions: 20 g of a.i./ha, crop plant corn
Experimental: as §5, §2, §3

Veronica persica [4] = assay: Post-emergence herbicidal action; conditions: read-out: Herbicidal activity in % against VERPE; for pest or weed control at 20 g/ha: 20 g of a.i./ha
Experimental: (§6) Seeds of mono- and dicotyledonous harmful plants are placed in sandy loam in cardboard pots, covered with soil and grown in the greenhouse under good growth conditions. Two to three weeks after sowing, the test plants are treated at the three-leaf stage. The compounds according to the invention, which are formulated as wettable powders or as emulsion concentrates, are sprayed at an application rate of 600 to 800 l of water/ha (converted) in a dosage of 80 grams per hectare onto the surface of the green plant parts. The visual scoring of the damage to the harmful plants is carried out 3-4 weeks after the treatment. Here, the compounds of Nos. 1-39, 1-40, 1-1382 and 1-2091 show an activity of at least 90% against Echinochloa crus galli. The compounds of Nos. 1-3, 1-44 and 1-2091 shown an activity of at least 90% against Abutilon theophrasti. The compounds of Nos. 1-39, 1-40 and 1-1382 show an activity of at least 90% against Veronica persica. The compounds of Nos. 1-3, 1-38, 1-39, 1-1406 and 1-1407 show an activity of at least 90% against Stellaria media.
as §2, §3

Viola tricolor [5] = assay: Post-emergence herbicidal action; conditions: read-out: Herbicidal activity in % against VIOTR; for pest or weed control at 20 g/ha: 20 g of a.i./ha
Experimental: as §6, §2, §3

Viola tricolor [6] = assay: Pre-emergence herbicidal action; conditions: 320 g of a.i./ha
Text: as §1, §2, §3

Fallopia convolvulus = assay: Pre-emergence herbicidal action; conditions: 320 g of a.i./ha
Text: as §4, §2, §3

Abutilon theophrasti = assay: Pre-emergence herbicidal action; conditions: 320 g of a.i./ha, visual scoring 3-4 weeks after treatment
Text: as §4, §2, §3

Galium aparine [7] = assay: Pre-emergence herbicidal action; conditions: 320 g of a.i./ha
Text: as §4, §2, §3

Chenopodium album = assay: Pre-emergence herbicidal action; conditions: 320 g of a.i./ha
Text: as §4, §2, §3

[8] = system: Triticum aestivum (wheat); assay: Pre-emergence damage of crop plants; conditions: 320 g of a.i./ha, crop plant wheat
Text: as §4, §2, §3

Glycine max (soybeans) = assay: Pre-emergence damage of crop plants; conditions: 320 g of a.i./ha, crop plant soybeans
Text: as §4, §2, §3

Pharbitis purpureum = assay: Pre-emergence herbicidal action; conditions: 320 g of a.i./ha
Text: as §4, §2, §3

Xanthium strumarium = assay: Pre-emergence herbicidal action; conditions: 320 g of a.i./ha
Text: as §4, §2, §3

In the case of `Cc1c(C(=O)c2c(C3CC3)nn(C)c2O)ccc(Cl)c1SCC1CC1` [drawing 43], the “Herbicidal activity in % against STEME” value (Stellaria media) is reported as 90%, the “Herbicidal activity in % against VERPE” value (Veronica persica [1]) is reported as 70% and the “Herbicidal activity in % against AMARE” value (Amaranthus retroflexus; 80 g of a.i./ha) is reported as 80%.
`CCSc1c(Cl)ccc(C(=O)c2c(C3CC3)nn(C)c2O)c1C` [drawing 18, reference compound] was tested, and the “Herbicidal activity in % against STEME” value (Stellaria media) was 60%, the “Herbicidal activity in % against VERPE” value (Veronica persica [1]) was 30% and the pest or weed control at 80 g/ha (Matricaria inodora) was 30%.
`CCS(=O)(=O)c1c(S(C)(=O)=O)ccc(C(=O)c2c(C3CC3)nn(C)c2O)c1C` [drawing 36, reference compound] was tested, and the “Herbicidal activity in % against GALAP” value (Galium aparine [2]) was 20%, the “Damage to TRZAS” value ([3]; 20 g of a.i./ha) was 80 and the “Damage to ZEAMX” value (Zea mays (corn)) was 10. The pest or weed control at 20 g/ha (Veronica persica [4]) was 20% and the pest or weed control at 20 g/ha (Viola tricolor [5]) was 20%.
With `COCCS(=O)(=O)c1c(S(C)(=O)=O)ccc(C(=O)c2c(C3CC3)nn(C)c2O)c1C` [drawing 35] the “Herbicidal activity in % against GALAP” value (Galium aparine [2]) was 50%, the “Damage to TRZAS” value ([3]; 20 g of a.i./ha) was 0 and the “Damage to ZEAMX” value (Zea mays (corn)) was 0. The pest or weed control at 20 g/ha (Veronica persica [4]) was 90% and the pest or weed control at 20 g/ha (Viola tricolor [5]) was 70%.
For `CSc1c(S(C)(=O)=O)ccc(C(=O)c2c(C3CC3)nn(C)c2O)c1Cl` [drawing 26], the “Herbicidal activity in % against AMARE” value (Amaranthus retroflexus; 320 g of a.i./ha, visual scoring 3-4 weeks after treatment) was 90%, the “Herbicidal activity in % against VIOTR” value (Viola tricolor [6]) was 50% and the “Herbicidal activity in % against POLCO” value (Fallopia convolvulus) was 40%. The pest or weed control at 320 g/ha (Matricaria inodora; 320 g of a.i./ha) was 0% and the “Herbicidal activity in % against ABUTH” value (Abutilon theophrasti) was 60%.
For `Cc1c(C(=O)c2c(C3CC3)nn(C)c2O)ccc(S(C)(=O)=O)c1S(=O)(=O)CC1CC1` [drawing 37], the “Herbicidal activity in % GALAP” value (Galium aparine [7]) was 100%, the “Herbicidal activity in % CHEAL” value (Chenopodium album) was 100% and the “Damage to TRZAS” value [8] was 0. The “Damage to GLXMA” value (Glycine max (soybeans)) was 0.
With `COCC[S+]([O-])c1c(S(C)(=O)=O)ccc(C(=O)c2c(C3CC3)nn(C)c2O)c1C` (stereo not shown) [drawing 33] the “Damage to TRZAS” value ([3]; 80 g of a.i./ha) was 20, the pest or weed control at 80 g/ha (Veronica persica [4]; 80 g of a.i./ha, visual scoring 3-4 weeks after treatment) was 100% and the pest or weed control at 80 g/ha (Viola tricolor [5]; 80 g of a.i./ha) was 70%.
`COCCSc1c(Cl)ccc(C(=O)c2c(C3CC3)nn(C)c2O)c1C` [drawing 17] was tested, and the “Herbicidal activity in % against STEME” value (Stellaria media) was 90%, the “Herbicidal activity in % against VERPE” value (Veronica persica [1]) was 90% and the pest or weed control at 80 g/ha (Matricaria inodora) was 60%.
For `CCS(=O)(=O)c1c(S(C)(=O)=O)ccc(C(=O)c2c(C3CC3)nn(C)c2O)c1C` [drawing 14, reference compound], the “Herbicidal activity in % against POLCO” value (Fallopia convolvulus) was 20%, the “Herbicidal activity in % against PHBPU” value (Pharbitis purpureum) was 20% and the “Herbicidal activity in % against XANST” value (Xanthium strumarium) was 0%.
